Test results: patent EP0509845A1, “(+) and (-) enantiomers of 5-aliphatic-6-(benzoxazinyl- or benzothiazinyl)-2,3,4,5-tetrahydropyridazin-3-ones” (ORTHO PHARMACEUTICAL CORPORATION, priority 1991, dated 1992)
Where two headings read alike, the source gives them in different places.

Columns and labels:
adult mongrel dogs = assay: Comparative racemate and enantiomer hemodynamic testing in pentobarbital anesthetized open-chest dogs; type: in vivo; settings: for CO Percent Change from Control: cardiac output; for CO Percent Change from Control / CF Percent Change from Control / HR Percent Change from Control / LVEDP Percent Change from Control / MAP Percent Change from Control / dP/dtmax Percent Change from Control / RAP Percent Change from Control / SV Percent Change from Control / SW Percent Change from Control / TPR Percent Change from Control: anesthetized open-chest dogs; for CF Percent Change from Control: contractile force; for HR Percent Change from Control: heart rate; for LVEDP Percent Change from Control: left ventricular end diastolic pressure; for MAP Percent Change from Control: mean blood pressure; for dP/dtmax Percent Change from Control: peak rate of rise in left ventricular pressure; for RAP Percent Change from Control: right atrial pressure; for SV Percent Change from Control: stroke volume (CO/HR x 1000); for SW Percent Change from Control: stroke work; for TPR Percent Change from Control: total peripheral resistance
Protocol: Adult mongrel dogs weighing approximately l0-l4 kg were anesthetized with sodium pentobarbital (35 mg/kg, i.p.) and artificially respired. A femoral artery was cannulated to measure mean arterial pressure (MAP) and a femoral vein was cannulated for administering compounds. A Millar microtip pressure transducer was placed in the left ventricle via the left carotid artery to measure left ventricular end diastolic pressure (EDP). pressure pulses triggered a cardiotachometer for determination of heart rate (HR) while the left ventricular pressure waveform was differentiated using a Gould differentiating amplifier to yield dP/dtmax, an index of contractility. A right thoractomy was performed at the fourth intercostal space and the pericardial sac was opened. An externally calibrated Walton-Brodie strain gauge arch was sutured to the right ventricular free wall and stretched to produce a baseline force of approximately l00g. Subsequent changes in right ventricular contractile force (CF) were measured from this baseline. A Carolina electromagnetic flow probe was placed on the ascending aorta to estimate cardiac output (CO). A flexible fluid-filled catheter was inserted into the tip of the right atrium to measure right atrial pressure (RAP). Needle electrodes were placed in the appropriate limbs to record a lead II electrocardiogram (ECG). The following formulas were used to calculate derived parameters: Stroke volume (SV) = CO/HR x l000 Stroke work (SW) = ([…]) x SV Total peripheral resistance (TPR) = (MAP-EDP)/CO
Following surgery and stabilization of hemodynamic parameters, an i.v. infusion of dopamine (l0-l5 µg/kg/min for 3 min) was administered with a Harvard infusion pump to assess responsiveness to positive inotropic stimulation. Baseline hemodynamic values were obtained immediately prior to drug infusion. Responses were continuously monitored on a recorder (Gould 2800) and data collection was facilitated by the use of a Buxco cardiovascular analyzer and data logger.
In the comparative testing a stock solution of each enantiomer (l mg/ml) was prepared fresh daily and diluted before use. Compounds were dissolved in a small volume of dimethylformamide (DMF) and diluted with saline for a final concentration of l5% DMF. Further dilutions were made with a l5% DMF solution.
In the comparative testing each compound was administered in cumulative doses to separate dogs. Data were obtained at the end of each dose. (±) Bemoradan and (+) Bemordan were infused at cumulative doses of 5, l5, 35 and 75 µg/kg, administered with a Harvard infusion pump for 5 minutes each at rates of 0.56, l.l, 2.2, and […], respectively. (-) Bemoradan was given at doses of 5, l5 and 35 µg/kg following the same protocol. The high dose of the (-) isomer was not administered as a means of conserving compound.
Hemodynamic results were expressed as the percent change from pre-drug baseline values and compared using a Dunnett's test with a criterion for significance of p < 0.05. Contractile force ED₄₀ values (i.e., the dose which increased contractile force by 40%) were calculated from dose-response regression lines.

[1] = biological target: T1, canine cardiac cyclic nucleotide phosphodiesterase (PDE) fraction III (Canis lupus familiaris, UniProt A0A8I3NYE0); assay: Cyclic AMP phosphodiesterase assay with fraction III isoenzyme, comparative testing; type: biochemical
T1 construct: The fraction III isoenzyme was pooled and dialyzed; from tissue; host or cells: canine heart, soluble supernatant, DEAE cellulose fraction III (800 mM sodium acetate eluate)
T1 sequence (A0A8I3NYE0 1-1135): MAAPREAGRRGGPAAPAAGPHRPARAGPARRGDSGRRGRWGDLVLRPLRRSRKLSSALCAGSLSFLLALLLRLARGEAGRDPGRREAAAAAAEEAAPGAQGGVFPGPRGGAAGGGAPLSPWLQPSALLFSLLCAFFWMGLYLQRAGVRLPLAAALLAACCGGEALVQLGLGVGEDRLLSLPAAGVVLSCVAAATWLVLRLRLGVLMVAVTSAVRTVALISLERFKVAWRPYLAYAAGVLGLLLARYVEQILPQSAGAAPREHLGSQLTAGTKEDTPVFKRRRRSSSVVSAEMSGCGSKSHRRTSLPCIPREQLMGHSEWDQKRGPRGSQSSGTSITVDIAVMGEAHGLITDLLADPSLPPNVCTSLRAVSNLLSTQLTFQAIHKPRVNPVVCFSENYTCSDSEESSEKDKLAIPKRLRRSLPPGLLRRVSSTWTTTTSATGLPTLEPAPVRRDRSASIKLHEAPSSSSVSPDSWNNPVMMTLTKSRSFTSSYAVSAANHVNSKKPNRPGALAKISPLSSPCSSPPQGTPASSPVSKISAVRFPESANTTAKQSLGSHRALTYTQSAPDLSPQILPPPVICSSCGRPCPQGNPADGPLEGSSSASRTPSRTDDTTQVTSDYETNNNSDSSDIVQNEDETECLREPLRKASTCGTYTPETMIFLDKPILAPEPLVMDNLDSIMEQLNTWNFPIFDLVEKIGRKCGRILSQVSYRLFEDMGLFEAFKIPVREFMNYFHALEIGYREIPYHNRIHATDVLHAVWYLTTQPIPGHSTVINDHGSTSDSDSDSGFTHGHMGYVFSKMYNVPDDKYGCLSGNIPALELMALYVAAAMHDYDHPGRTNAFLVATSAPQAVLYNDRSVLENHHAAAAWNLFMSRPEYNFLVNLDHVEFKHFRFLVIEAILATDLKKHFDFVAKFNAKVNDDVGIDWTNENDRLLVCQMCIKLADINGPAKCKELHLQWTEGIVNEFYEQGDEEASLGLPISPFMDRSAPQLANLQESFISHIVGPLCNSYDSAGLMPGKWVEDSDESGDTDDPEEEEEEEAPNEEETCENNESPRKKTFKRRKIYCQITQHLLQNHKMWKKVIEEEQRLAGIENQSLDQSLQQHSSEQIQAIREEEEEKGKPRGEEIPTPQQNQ

IC50 ([1]; Table I summary, canine cardiac PDE fraction III, read-out: PDE III inhibition (IC50)): 8 µM | IC50 ([1]; canine heart fraction III, 0.1 µM cyclic AMP, read-out: PDE III IC50): 8 µM
SMILES: CC1CC(=O)NN=C1c1ccc2c(c1)OCC(=O)N2 (single isomer, unassigned; isomer 6) [(+) isomer, 6-(3,4-dihydro-3-oxo-l,4(2H)-benzoxazin-7-yl)-2,3,4,5-tetrahydro-5-methyl-pyridazin-3-one]
In vivo inotropic ED40, i.v. (adult mongrel dogs; Table I summary, dose increasing contractile force by 40%, dogs, i.v.): 0.0423 mg/kg | CO Percent Change from Control (adult mongrel dogs; cumulative i.v. dose 5 µg/kg): 2.0±1.4% | CO Percent Change from Control (adult mongrel dogs; cumulative i.v. dose 15 µg/kg): 4.8±2.8% | CO Percent Change from Control (adult mongrel dogs; cumulative i.v. dose 35 µg/kg): 10.6±5.9% | CO Percent Change from Control (adult mongrel dogs; cumulative i.v. dose 75 µg/kg): 13.4±8.5% | CF Percent Change from Control (adult mongrel dogs; cumulative i.v. dose 5 µg/kg): 4.3±2.7% | CF Percent Change from Control (adult mongrel dogs; cumulative i.v. dose 15 µg/kg): 11.8±3.3% | CF Percent Change from Control (adult mongrel dogs; cumulative i.v. dose 35 µg/kg): 29.5±5.2% | CF Percent Change from Control (adult mongrel dogs; cumulative i.v. dose 75 µg/kg): 59.5±7.2% | CF ED40 (µg/kg) with 95% F.L. (adult mongrel dogs; dose causing a 40% increase in contractility above baseline, from dose-response regression lines, i.v. infusion, dogs): 42.3 (33.5 - 56.7) µg/kg | HR Percent Change from Control (adult mongrel dogs; cumulative i.v. dose 5 µg/kg): -0.7±0.8% | HR Percent Change from Control (adult mongrel dogs; cumulative i.v. dose 15 µg/kg): 1.2±0.8% | HR Percent Change from Control (adult mongrel dogs; cumulative i.v. dose 35 µg/kg): 4.5±1.0% | HR Percent Change from Control (adult mongrel dogs; cumulative i.v. dose 75 µg/kg): 10.6±3.7% | LVEDP Percent Change from Control (adult mongrel dogs; cumulative i.v. dose 5 µg/kg): -3.4±3.6% | LVEDP Percent Change from Control (adult mongrel dogs; cumulative i.v. dose 15 µg/kg): -4.9±4.8% | LVEDP Percent Change from Control (adult mongrel dogs; cumulative i.v. dose 35 µg/kg): -7.4±5.7% | LVEDP Percent Change from Control (adult mongrel dogs; cumulative i.v. dose 75 µg/kg): -11.2±7.1% | MAP Percent Change from Control (adult mongrel dogs; cumulative i.v. dose 5 µg/kg): -1.4±1.1% | MAP Percent Change from Control (adult mongrel dogs; cumulative i.v. dose 15 µg/kg): -1.8±1.7% | MAP Percent Change from Control (adult mongrel dogs; cumulative i.v. dose 35 µg/kg): -2.2±2.2% | MAP Percent Change from Control (adult mongrel dogs; cumulative i.v. dose 75 µg/kg): -3.8±2.8% | dP/dtmax Percent Change from Control (adult mongrel dogs; cumulative i.v. dose 5 µg/kg): 2.8±1.0% | dP/dtmax Percent Change from Control (adult mongrel dogs; cumulative i.v. dose 15 µg/kg): 7.3±1.8% | dP/dtmax Percent Change from Control (adult mongrel dogs; cumulative i.v. dose 35 µg/kg): 18.9±3.6% | dP/dtmax Percent Change from Control (adult mongrel dogs; cumulative i.v. dose 75 µg/kg): 37.0±6.4% | RAP Percent Change from Control (adult mongrel dogs; cumulative i.v. dose 5 µg/kg): -10.6±8.5% | RAP Percent Change from Control (adult mongrel dogs; cumulative i.v. dose 15 µg/kg): -5.8±9.7% | RAP Percent Change from Control (adult mongrel dogs; cumulative i.v. dose 35 µg/kg): -4.2±8.4% | RAP Percent Change from Control (adult mongrel dogs; cumulative i.v. dose 75 µg/kg): -21.7±13.3% | SV Percent Change from Control (adult mongrel dogs; cumulative i.v. dose 5 µg/kg): 2.5±0.7% | SV Percent Change from Control (adult mongrel dogs; cumulative i.v. dose 15 µg/kg): 4.0±2.4% | SV Percent Change from Control (adult mongrel dogs; cumulative i.v. dose 35 µg/kg): 6.8±6.1% | SV Percent Change from Control (adult mongrel dogs; cumulative i.v. dose 75 µg/kg): 6.1±9.1% | SW Percent Change from Control (adult mongrel dogs; cumulative i.v. dose 5 µg/kg): 0.7±1.3% | SW Percent Change from Control (adult mongrel dogs; cumulative i.v. dose 15 µg/kg): 1.7±3.5% | SW Percent Change from Control (adult mongrel dogs; cumulative i.v. dose 35 µg/kg): 4.4±7.3% | SW Percent Change from Control (adult mongrel dogs; cumulative i.v. dose 75 µg/kg): 1.9±9.9% | TPR Percent Change from Control (adult mongrel dogs; cumulative i.v. dose 5 µg/kg): -3.6±0.7% | TPR Percent Change from Control (adult mongrel dogs; cumulative i.v. dose 15 µg/kg): -6.6±1.7% | TPR Percent Change from Control (adult mongrel dogs; cumulative i.v. dose 35 µg/kg): -11.3±3.7% | TPR Percent Change from Control (adult mongrel dogs; cumulative i.v. dose 75 µg/kg): -14.4±5.3%
